Laboratory results from ChEMBL document CHEMBL4346757, “Synthesis and biological evaluation of 7-methoxy-1-(3,4,5-trimethoxyphenyl)-4,5-dihydro-2H-benzo[e]indazoles as new colchicine site inhibitors” (Bioorg Med Chem Lett, 2019).

Columns and labels:
Format in all cases: functional
NCI-H522 = assay: Growth inhibition of human NCI-H522 cells assessed as cell growth at 0.01 uM after 48 hrs by SRB assay relative to control; details: NCI-H522, 48 h, read-out: Activity
SK-MEL-2 = assay: Growth inhibition of human SK-MEL-2 cells assessed as cell growth at 0.01 uM after 48 hrs by SRB assay relative to control; details: SK-MEL-2, 48 h, read-out: Activity
ACHN [1] = assay: Growth inhibition of human ACHN cells assessed as cell growth at 0.01 uM after 48 hrs by SRB assay relative to control; details: read-out: Activity
MDA-MB-468 [2] = assay: Growth inhibition of human MDA-MB-468 cells assessed as cell growth at 0.01 uM after 48 hrs by SRB assay relative to control; details: MDA-MB-468, 48 h, read-out: Activity
SNB-19 = assay: Growth inhibition of human SNB19 cells assessed as cell growth at 0.1 uM after 48 hrs by SRB assay relative to control; details: SNB-19, 48 h, read-out: Activity
786-0 = assay: Growth inhibition of human 786-0 cells assessed as cell growth at 0.1 uM after 48 hrs by SRB assay relative to control; details: 786-0, 48 h, read-out: Activity
CAKI-1 = assay: Growth inhibition of human Caki1 cells assessed as cell growth at 0.1 uM after 48 hrs by SRB assay relative to control; details: CAKI-1, 48 h, read-out: Activity
MOLT-4 = assay: Growth inhibition of human MOLT4 cells assessed as cell growth at 1 uM after 48 hrs by SRB assay relative to control; details: MOLT-4, 48 h, read-out: Activity
M14 [3] = assay: Growth inhibition of human M14 cells assessed as cell growth at 1 uM after 48 hrs by SRB assay relative to control; details: M14, 48 h, read-out: Activity
RXF 393 = assay: Growth inhibition of human RXF393 cells assessed as cell growth at 1 uM after 48 hrs by SRB assay relative to control; details: RXF 393, 48 h, read-out: Activity
BT-549 = assay: Growth inhibition of human BT549 cells assessed as cell growth at 1 uM after 48 hrs by SRB assay relative to control; details: BT-549, 48 h, read-out: Activity
MDA-MB-468 [4] = assay: Growth inhibition of human MDA-MB-468 cells assessed as cell growth at 1 uM after 48 hrs by SRB assay relative to control; details: MDA-MB-468, 48 h, read-out: Activity
A549 = assay: Growth inhibition of human A549/ATCC cells assessed as cell growth at 10 uM after 48 hrs by SRB assay relative to control; details: A549, 48 h, read-out: Activity
HOP-92 [5] = assay: Growth inhibition of human HOP92 cells assessed as cell growth at 10 uM after 48 hrs by SRB assay relative to control; details: HOP-92, 48 h, read-out: Activity
KM12 = assay: Growth inhibition of human KM12 cells assessed as cell growth at 10 uM after 48 hrs by SRB assay relative to control; details: KM12, 48 h, read-out: Activity
Malme-3M = assay: Growth inhibition of human MALME-3M cells assessed as cell growth at 10 uM after 48 hrs by SRB assay relative to control; details: read-out: Activity
M14 [6] = assay: Growth inhibition of human M14 cells assessed as cell growth at 10 uM after 48 hrs by SRB assay relative to control; details: M14, 48 h, read-out: Activity
SR = assay: Growth inhibition of human SR cells assessed as cell growth at 100 uM after 48 hrs by SRB assay relative to control; details: read-out: Activity
HOP-62 [7] = assay: Growth inhibition of human HOP62 cells assessed as cell growth at 100 uM after 48 hrs by SRB assay relative to control; details: HOP-62, 48 h, read-out: Activity
OVCAR-4 = assay: Growth inhibition of human OVCAR4 cells assessed as cell growth at 100 uM after 48 hrs by SRB assay relative to control; details: OVCAR-4, 48 h, read-out: Activity
PC-3 = assay: Growth inhibition of human PC3 cells assessed as cell growth at 100 uM after 48 hrs by SRB assay relative to control; details: PC-3, 48 h, read-out: Activity
MCF7 = assay: Growth inhibition of human MCF7 cells assessed as cell growth at 100 uM after 48 hrs by SRB assay relative to control; details: MCF7, 48 h, read-out: Activity
MDA-MB-468 [8] = assay: Growth inhibition of human MDA-MB-468 cells assessed as cell growth at 100 uM after 48 hrs by SRB assay relative to control; details: MDA-MB-468, 48 h, read-out: Activity
HOP-62 [9] = assay: Cytotoxicity against human HOP62 cells assessed as growth inhibition after 48 hrs by SRB assay; details: HOP-62, 48 h
HOP-92 [10] = assay: Cytotoxicity against human HOP92 cells assessed as growth inhibition after 48 hrs by SRB assay; details: HOP-92, 48 h
NCI-H23 = assay: Cytotoxicity against human NCI-H23 cells assessed as growth inhibition after 48 hrs by SRB assay; details: NCI-H23, 48 h
MDA-MB-435 = assay: Cytotoxicity against human MDA-MB-435 cells assessed as growth inhibition after 48 hrs by SRB assay; details: MDA-MB-435, 48 h
SK-MEL-28 = assay: Cytotoxicity against human SK-MEL-28 cells assessed as growth inhibition after 48 hrs by SRB assay; details: SK-MEL-28, 48 h
ACHN [11] = assay: Cytotoxicity against human ACHN cells assessed as growth inhibition after 48 hrs by SRB assay
SN12C = assay: Cytotoxicity against human SN12C cells assessed as growth inhibition after 48 hrs by SRB assay
[12] = read-out: LC50 (the source's name)
[13] = read-out: pLC50 (the source's name) (converted)

COc1ccc2c(c1)CCc1n[nH]c(-c3cc(OC)c(OC)c(OC)c3)c1-2
growth at 0.01 µM (NCI-H522): -16%
growth at 0.01 µM (SK-MEL-2): 39%
growth at 0.01 µM (ACHN [1]): 30%
growth at 0.01 µM (MDA-MB-468 [2]): -7%
growth at 0.1 µM (SNB-19): 33%
growth at 0.1 µM (786-0): 17%
growth at 0.1 µM (CAKI-1): 23%
growth at 1 µM (MOLT-4): 36%
growth at 1 µM (M14 [3]): 4%
growth at 1 µM (RXF 393): 6%
growth at 1 µM (BT-549): 3%
growth at 1 µM (MDA-MB-468 [4]): -1%
growth at 10 µM (A549): 11%
growth at 10 µM (HOP-92 [5]): 42%
growth at 10 µM (KM12): 6%
growth at 10 µM (Malme-3M): 41%
growth at 10 µM (M14 [6]): 2%
growth at 100 µM (SR): -15%
growth at 100 µM (HOP-62 [7]): -76%
growth at 100 µM (OVCAR-4): -12%
growth at 100 µM (PC-3): -43%
growth at 100 µM (MCF7): -38%
growth at 100 µM (MDA-MB-468 [8]): -39%
GI50 (HOP-62 [9]; read-out: GI50): < 10 nM
CC50 (HOP-62 [9]; [12]): 46.7 µM
TGI (HOP-62 [9]; read-out: TGI): 10.8 µM
GI50 (HOP-62 [9]; read-out: pGI50 (converted)): < 10 nM
CC50 (HOP-62 [9]; [13]): 46.8 µM
TGI (HOP-62 [9]; read-out: pTGI (converted)): 10.7 µM
GI50 (HOP-92 [10]; read-out: GI50): < 10 nM
CC50 (HOP-92 [10]; [12]): 99.8 µM
TGI (HOP-92 [10]; read-out: TGI): 28.5 µM
GI50 (HOP-92 [10]; read-out: pGI50 (converted)): < 10 nM
CC50 (HOP-92 [10]; [13]): 100 µM
TGI (HOP-92 [10]; read-out: pTGI (converted)): 28.2 µM
GI50 (NCI-H23; read-out: GI50): < 10 nM
CC50 (NCI-H23; [12]): > 100 µM
TGI (NCI-H23; read-out: TGI): 3.53 µM
GI50 (NCI-H23; read-out: pGI50 (converted)): < 10 nM
CC50 (NCI-H23; [13]): > 100 µM
TGI (NCI-H23; read-out: pTGI (converted)): 3.55 µM
GI50 (MDA-MB-435; read-out: GI50): < 10 nM
CC50 (MDA-MB-435; [12]): 29.8 µM
TGI (MDA-MB-435; read-out: TGI): < 10 nM
GI50 (MDA-MB-435; read-out: pGI50 (converted)): < 10 nM
CC50 (MDA-MB-435; [13]): 29.5 µM
TGI (MDA-MB-435; read-out: pTGI): < 10 nM
GI50 (SK-MEL-28; read-out: GI50): 1620 nM
LC50 (concentration killing 50% of cells) (SK-MEL-28; read-out: LC50): 68.8 µM
TGI (SK-MEL-28; read-out: TGI): 21.7 µM
GI50 (SK-MEL-28; read-out: pGI50 (converted)): 1620 nM
LC50 (concentration killing 50% of cells) (SK-MEL-28; read-out: pLC50 (converted)): 69.2 µM
TGI (SK-MEL-28; read-out: pTGI (converted)): 21.9 µM
GI50 (ACHN [11]; read-out: GI50): < 10 nM
LC50 (ACHN [11]; read-out: LC50): > 100 µM
TGI (ACHN [11]; read-out: TGI): 21.7 µM
GI50 (ACHN [11]; read-out: pGI50 (converted)): < 10 nM
LC50 (ACHN [11]; read-out: pLC50 (converted)): > 100 µM
TGI (ACHN [11]; read-out: pTGI (converted)): 21.9 µM
GI50 (SN12C; read-out: GI50): < 10 nM
CC50 (SN12C; [12]): > 100 µM
TGI (SN12C; read-out: TGI): 22 µM
GI50 (SN12C; read-out: pGI50 (converted)): < 10 nM
CC50 (SN12C; [13]): > 100 µM
TGI (SN12C; read-out: pTGI (converted)): 21.9 µM
